According to patent US20120214847A1, “2-[1-PHENYL-5-HYDROXY-4a-SUBSTITUTED-HEXAHYDROCYCLOPENTA[F]INDAZOL-5-YL]ETHYL PHENYL DERIVATIVES AS GLUCOCORTICOID RECEPTOR LIGANDS” (Merck Sharp & Dohme Corp., priority 2009, published 2012):

Biological target: T1, human GR (Homo sapiens, UniProt P04150)
T1 construct: naturally expresses the human GR; endogenous in cells
T1 sequence (P04150 1-777): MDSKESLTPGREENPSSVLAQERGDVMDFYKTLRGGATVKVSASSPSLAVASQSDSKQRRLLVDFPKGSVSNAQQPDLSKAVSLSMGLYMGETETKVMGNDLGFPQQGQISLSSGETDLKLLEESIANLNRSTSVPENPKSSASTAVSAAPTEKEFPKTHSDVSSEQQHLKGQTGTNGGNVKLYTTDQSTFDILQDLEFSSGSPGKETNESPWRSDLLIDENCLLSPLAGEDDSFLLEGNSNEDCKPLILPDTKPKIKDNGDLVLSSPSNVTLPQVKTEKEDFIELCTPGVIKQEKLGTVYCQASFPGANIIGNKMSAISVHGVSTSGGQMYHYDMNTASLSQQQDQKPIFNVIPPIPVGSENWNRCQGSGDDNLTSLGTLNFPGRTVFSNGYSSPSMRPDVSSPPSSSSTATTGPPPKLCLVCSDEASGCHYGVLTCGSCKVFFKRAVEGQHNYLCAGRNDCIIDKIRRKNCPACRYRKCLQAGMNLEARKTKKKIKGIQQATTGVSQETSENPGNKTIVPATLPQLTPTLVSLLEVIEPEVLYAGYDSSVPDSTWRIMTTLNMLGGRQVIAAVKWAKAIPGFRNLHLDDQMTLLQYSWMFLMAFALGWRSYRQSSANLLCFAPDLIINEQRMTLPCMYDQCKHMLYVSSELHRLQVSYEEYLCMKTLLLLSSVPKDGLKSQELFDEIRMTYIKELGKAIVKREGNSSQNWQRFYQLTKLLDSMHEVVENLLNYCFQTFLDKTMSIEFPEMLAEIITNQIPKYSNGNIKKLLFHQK
Assay: Trans-activation modulation of glucocorticoid receptor (GRAMMER), MMTV-LUC reporter in A549 cells
Format: cell-based
Details: for Emax: A549, A549 cells, read-out: Transactivation A549 Cells Grammer Emax (%); for Emax / Transactivation A549 Cells Grammer Emax (%): Emax relative to the activity obtained with 300 nM dexamethasone; for EC50 / Transactivation A549 Cells Grammer Emax (%): A549 cells; for EC50: IP = inflection point, read-out: Transactivation A549 Cells Grammer IP
From the text: Trans-Activation Modulation of Glucocorticoid Receptor (GRAMMER)
This assay assesses the ability of test compounds to control transcription from the MMTV-LUC reporter gene in lung adenocarcinoma A549 cells or HeLa cells, a human […] cell line that naturally expresses the human GR. The assay measures induction of a modified MMTV LTR/promoter linked to the LUC reporter gene.
The routine transient assay consists of plating 7,000-25,000 cells/well of a white, clear-bottom 96-well plate. Alternatively, 384-well plates can be used at a cell concentration of 10,000/well. The media that the cells are plated in is “exponential growth medium” which consists of phenol red-free RPMI1640 containing 10% FBS, 4 mM L-glutamine, 20 mM HEPES, 10 ug/mL human insulin, and 20 ug/mL gentamicin. Incubator conditions are 37° C. and 5% C02. The transfection is done in batch mode. The cells are trypsinized and counted to the right cell number in the proper amount of fresh media. It is then gently mixed with the FuGene6/DNA 25 mix and plated onto the 96 or 384-well plate, all the wells receive 100 uL or 40 uL, respectively, of medium+lipid/DNA complex then incubated 37° C. overnight. The transfection cocktail consists of serum-free OptiMEM, FuGene6 reagent and DNA. The manufacturer's (Roche Biochemical) protocol for cocktail setup is as follows: The lipid to DNA ratio is approximately 2.5:1 and the incubation time is 20 min at room temperature. Sixteen to 24 h after transfection, the cells are treated with dexamethasone to a final concentration of 10 nM as well as the compound of interest, such that final DMSO (vehicle) concentration is equal to or less than 1%. Each plate also contains samples that are treated with 10 nM dexamethasone alone, which is used as the 100% activity control. The cells are exposed to the compounds for 24 h. After 24 h, the cells are lysed by a Promega cell culture lysis buffer for approximately 30 min and then the luciferase activity in the extracts is assayed in the 96-well format luminometer. In 384 well format, Steady-Glo (Promega) or Steady-Lite (PerkinElmer) can be used by adding an equal volume of reagent to the media present in each well. Activity induced by 10 nM dexamethasone alone is set at 100% activity. Antagonist activity is calculated by determining the decrease in dexamethasone-induced activity in response to compound treatment relative to samples that were treated with dexamethasone alone. Results are expressed as % inhibition of 10 nM dexamethasone activity or as fold of 10 nM dexamethasone activity. This transactivation assay can be performed in an agonist and antagonist mode to identify these different activities.
Activity of test compounds is calculated as the Emax relative to the activity obtained with 300 nM dexamethasone. […] The exemplified tissue selective glucocorticoid receptor modulators of the present invention display agonist activity in this assay of greater than 5% and less than 100%, and maximal transactivation activity less then maximal transrepression activity. The action of compounds is also tested in an antagonist mode (Anti-GRAMMER) in which the cells are treated with medium containing an agonist such as 10 nM DEX and the ability of agents to inhibit the activation by an agonist is measured.

| Compound | Emax [%] | EC50 [nM] | Transactivation A549 Cells Grammer Emax (%) |
| --- | --- | --- | --- |
| CC[C@]12Cc3cnn(-c4ccc(F)cc4)c3C=C1CC[C@@]2(O)CCc1ccc(F)cn1 [Example 19, (4aS,5R)-4a-Ethyl-1-(4-fluorophenyl)-5-[2-(5-fluoropyridin-2-yl)ethyl]-1,4,4a,5,6,7-hexahydrocyclopenta[f]indazol-5-ol] | 18 | 156 |  |
| CC[C@]12Cc3cnn(-c4ccccc4)c3C=C1CC[C@@]2(O)CCc1ccccc1C(N)=O [Example 20, 2-{2-[(4aS,5R)-4a-Ethyl-5-hydroxy-1-phenyl-1,4,4a,5,6,7-hexahydrocyclopenta[f]indazol-5-yl]ethyl}benzamide] | 51 | 45 |  |
| CC[C@]12Cc3cnn(-c4ccc(F)cc4)c3C=C1CC[C@@]2(O)CCc1cncc(F)c1 [Example 21, (4aS,5R)-4a-Ethyl-1-(4-fluorophenyl)-5-[2-(5-fluoropyridin-3-yl)ethyl]-1,4,4a,5,6,7-hexahydrocyclopenta[f]indazol-5-ol] | 31 | 76 |  |
| CC[C@]12Cc3cnn(-c4ccc(F)cc4)c3C=C1CC[C@@]2(O)CCc1ccccc1CCC(N)=O [Example 22, 3-(2-{2-[(4aS,5R)-4a-Ethyl-1-(4-fluorophenyl)-5-hydroxy-1,4,4a,5,6,7-hexahydrocyclopenta[f]indazol-5-yl]ethyl}phenyl)propanamide] | 28 | 123 |  |
| NC(=O)c1ccccc1CC[C@]1(O)CCC2=Cc3c(cnn3-c3ccc(F)cc3)C[C@@]21C1CC1 [Example 23, 2-{2-[(4aR,5R)-4a-Cyclopropyl-1-(4-fluorophenyl)-5-hydroxy-1,4,4a,5,6,7-hexahydrocyclopenta[f]indazol-5-yl]ethyl}benzamide] | 21 | 37 |  |
| NS(=O)(=O)c1ccccc1CC[C@]1(O)CCC2=Cc3c(cnn3-c3cccnc3)C[C@@]21C1CC1 [Example 24, 2-{2-[(4aR,5R)-4a-Cyclopropyl-5-hydroxy-1-(pyridin-3-yl)-1,4,4a,5,6,7-hexahydrocyclopenta[f]indazol-5-yl]ethyl}benzenesulfonamide] | 35 | 24 |  |
| CC[C@]12Cc3cnn(-c4ccc(F)cc4)c3C=C1CC[C@@]2(O)CCc1ccccc1C(O)C(N)=O (stereo partly drawn) [Example 25, 2-(2-{2-[(4aS,5R)-4a-Ethyl-1-(4-fluorophenyl)-5-hydroxy-1,4,4a,5,6,7-hexahydrocyclopenta[f]indazol-5-yl]ethyl}phenyl)-2-hydroxyacetamide] |  | 195 | 22 |

More lines, now with the values ahead:

| Emax [%] | EC50 [nM] | Transactivation A549 Cells Grammer Emax (%) | Compound |
| --- | --- | --- | --- |
|  | 161 | 58 | CC[C@]12Cc3cnn(-c4ccc(F)cc4)c3C=C1CC[C@@]2(O)CCc1ccccc1C(O)C(N)=O (stereo partly drawn) [Example 26, 2-(2-{2-[(4aS,5R)-4a-Ethyl-1-(4-fluorophenyl)-5-hydroxy-1,4,4a,5,6,7-hexahydrocyclopenta[f]indazol-5-yl]ethyl}phenyl)-2-hydroxyacetamide] |
| 13 | 23 |  | N#Cc1ccccc1CC[C@]1(O)CCC2=Cc3c(cnn3-c3ccccc3)C[C@@]21C1CC1 [Example 27, 2-{2-[(4aR,5R)-4a-Cyclopropyl-5-hydroxy-1-phenyl-1,4,4a,5,6,7-hexahydrocyclopenta[f]indazol-5-yl]ethyl}benzonitrile] |
| 8 | 32 |  | N#Cc1c(F)cccc1CC[C@]1(O)CCC2=Cc3c(cnn3-c3ccccc3)C[C@@]21C1CC1 [Example 28, 2-{2-[(4aR,5R)-4a-Cyclopropyl-5-hydroxy-1-phenyl-1,4,4a,5,6,7-hexahydrocyclopenta[f]indazol-5-yl]ethyl}-6-fluorobenzonitrile] |
| 12 | 74 |  | NC(=O)c1ccccc1CC[C@]1(O)CCC2=Cc3c(cnn3-c3ccccc3)C[C@@]21C1CC1 [Example 29, 2-{2-[(4aR,5R)-4a-Cyclopropyl-5-hydroxy-1-phenyl-1,4,4a,5,6,7-hexahydrocyclopenta[f]indazol-5-yl]ethyl}benzamide] |
